Laboratory results reported in US12606561B2, “Substituted pyrazolo[1,5-a][1,3,5]triazines as CDK inhibitors” (QURIENT CO., LTD., priority 2018, dated 2026).

System: A2780
Experiment: A2780 viability assay (CellTiter-Glo, 72 hours)
Type: cell-based
Conditions: Homo sapiens; A2780 cells
Summary of the method: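 After a 24 h attachment period, cells received a 0.0015–10 uM compound titration and were incubated 72 h at 37° C, 5% CO2. Viability came from CellTiter-Glo luminescence measured in duplicate.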

`CC(C)c1cnn2c(NCc3ccccc3-c3nccc4cc(NC(=O)/C=C/CN(C)C)ccc34)nc(N3CCC(N)CC3)nc12` [Compound 11] gave an IC50 of less than 1000 nM.
